Biological target: T1, HMG-CoA reductase (Rattus norvegicus, UniProt P51639)
T1 sequence (P51639 1-887): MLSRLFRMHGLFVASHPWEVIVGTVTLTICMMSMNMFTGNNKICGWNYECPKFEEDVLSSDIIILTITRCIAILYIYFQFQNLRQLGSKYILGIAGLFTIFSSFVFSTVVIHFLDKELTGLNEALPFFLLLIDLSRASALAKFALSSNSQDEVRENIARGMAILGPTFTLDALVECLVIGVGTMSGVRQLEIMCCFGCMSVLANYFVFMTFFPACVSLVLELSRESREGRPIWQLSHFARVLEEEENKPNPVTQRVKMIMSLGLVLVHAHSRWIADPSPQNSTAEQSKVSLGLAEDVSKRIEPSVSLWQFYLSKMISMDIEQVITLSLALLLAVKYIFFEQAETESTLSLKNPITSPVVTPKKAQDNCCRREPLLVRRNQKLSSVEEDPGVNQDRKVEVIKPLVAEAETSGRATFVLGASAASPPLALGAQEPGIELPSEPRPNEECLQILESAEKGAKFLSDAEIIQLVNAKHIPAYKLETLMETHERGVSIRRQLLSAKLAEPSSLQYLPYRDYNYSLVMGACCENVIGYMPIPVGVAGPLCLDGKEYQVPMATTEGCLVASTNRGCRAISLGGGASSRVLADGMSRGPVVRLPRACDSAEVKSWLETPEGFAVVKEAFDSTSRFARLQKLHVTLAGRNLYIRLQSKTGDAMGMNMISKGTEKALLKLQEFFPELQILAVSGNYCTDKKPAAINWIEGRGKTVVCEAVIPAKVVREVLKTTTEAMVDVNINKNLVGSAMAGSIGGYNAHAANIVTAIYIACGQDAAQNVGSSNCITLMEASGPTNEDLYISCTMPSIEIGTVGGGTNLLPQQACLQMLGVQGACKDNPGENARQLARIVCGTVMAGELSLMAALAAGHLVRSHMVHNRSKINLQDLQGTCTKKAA
Assay: intrinsic HMG-CoA reductase inhibition, in vitro protocol of J. Med. Chem. 28, 347-358 (1985)
Assay type: biochemical
Settings: IC50 of test compound compared with that of compactin (mevastatin) determined simultaneously; compactin assigned 100
Method: The intrinsic HMG-CoA reductase inhibition activity of the claimed compounds is measured in the in vitro protocol published in J. Med. Chem. 28, p. 347-358 (1985).
For estimation of relative inhibitory potencies, mevastatin (compactin) was assigned a value of 100 and the IC50 value of the test compound was compared with that of compactin determined simultaneously in the published in vitro protocol.

Q: For `CCC(C)(C)C(=O)O[C@H]1C[C@H](CNC(=O)Nc2ccccc2)C=C2C=C[C@H](C)[C@H](CC[C@@H]3C[C@@H](O)CC(=O)O3)[C@H]21` [Example 4, 6(R)-[2-[8(S)-(2,2-dimethylbutyryloxy)-2(S)-methyl-6(S)-phenylureidomethyl-1,2,6,7,8,8a(R)-hexahydronaphthyl-1(S)]ethyl]-4(R)-hydroxy-3,4,5,6-tetrahydro-2H-pyran-2-one], which “Relative Potency” value is on record?
A: Its value is 294.

Q: `CCC(C)(C)C(=O)O[C@H]1C[C@H](CNC(=O)NCc2ccccc2)C=C2C=C[C@H](C)[C@H](CC[C@@H]3C[C@@H](O)CC(=O)O3)[C@H]21` [Example 5, 6(R)-[2-[8(S)-(2,2-dimethylbutyryloxy)-2(S)-methyl-6(S)-benzylureidomethyl-1,2,6,7,8,8a(R)-hexahydronaphthyl-1(S)]ethyl]-4(R)-hydroxy-3,4,5,6-tetrahydro-2H-pyran-2-one] was tested. Which “Relative Potency” value did it give?
A: Its value is 500.

Q: With `CCC(C)(C)C(=O)O[C@H]1C[C@H](CN)C=C2C=C[C@H](C)[C@H](CC[C@@H](O)C[C@@H](O)CC(=O)O)[C@H]21` [Example 1] as the molecule, how does the “Relative Potency” value read?
A: Its value is 125.

Q: With `CCC(C)(C)C(=O)O[C@H]1C[C@H](CNC(=O)c2ccccc2)C=C2C=C[C@H](C)[C@H](CC[C@@H]3C[C@@H](O)CC(=O)O3)[C@H]21` [Example 3, 6(R)-[2-[8(S)-(2,2-dimethylbutyryloxy)-2(S)-methyl-6(S)-phenylcarbonylaminomethyl-1,2,6,7,8,8a(R)-hexahydronaphthyl-1(S)]ethyl]-4(R)-hydroxy-3,4,5,6-tetrahydro-2H-pyran-2-one] as the molecule, how does the “Relative Potency” value read?
A: Its value is 300.

Q: `CCC(C)(C)C(=O)O[C@H]1C[C@H](CNCc2ccccc2)C=C2C=C[C@H](C)[C@H](CC[C@@H]3C[C@@H](O)CC(=O)O3)[C@H]21` [Example 2, 6(R)-[2-[8(S)-(2,2-dimethylbutyryloxy)-2(S)-methyl-6(S)-benzylaminomethyl-1,2,6,7,8, 8a(R)-hexahydronaphthyl-1(S)]ethyl]-4(R)-hydroxy-3,4,5,6-tetrahydro-2H-pyran-2-one] was tested. Which “Relative Potency” value did it give?
A: Its value is 167.

From patent US4857546A, “Novel HMG-CoA reductase inhibitors” (Merck & Co., Inc., priority 1988, dated 1989)
